Measured values reported in ChEMBL document CHEMBL1157850, “Synthesis, spectral characterization and bioassay of 3,3'-(1,4-phenylene)-bis[2-alkoxycarbonyl-alkyl)-2-thio-benzoxa-phosphinines]” (Eur J Med Chem, 2010).
In brackets after ≈: the same amount, converted by molar mass. Activity calls are given as the source filed them. The calls are words filed in the database; no cut-off is given here.

Key:
[1] = species on record: Rattus norvegicus; assay: Antioxidant activity in Wistar albino rat assessed as inhibition of lipid peroxidation; format: functional, organism-based
[2] = species on record: Rattus norvegicus; assay: Antioxidant activity in Wistar albino rat assessed as superoxide dismutase level; format: functional
[3] = species on record: Rattus norvegicus; assay: Antioxidant activity in Wistar albino rat assessed as reduced glutathione level; format: functional
[4] = species on record: Rattus norvegicus; assay: Antioxidant activity in Wistar albino rat assessed as catalase level; format: functional
[5] = species on record: Rattus norvegicus; assay: Antioxidant activity in Wistar albino rat assessed as lipid peroxidation level; format: functional, organism-based
[6] = species on record: Rattus norvegicus; assay: Antioxidant activity in Wistar albino rat assessed as inhibition of superoxide dismutase activity; format: functional, organism-based
[7] = species on record: Rattus norvegicus; assay: Antioxidant activity in Wistar albino rat assessed as reduced glutathione activity; format: functional, organism-based
[8] = species on record: Rattus norvegicus; assay: Antioxidant activity in Wistar albino rat assessed as inhibition of catalase activity; format: functional, organism-based
[9] = Rattus norvegicus, Wistar albino, read-out: EC50

Row | Compound | EC50 [1, 9] [µg/mL] | Activity [2] | Activity [3] [µg/mL] | Activity [4] [µg/mL] | Activity [5] [µg/mL] | EC50 [6, 9] [µg/mL] | EC50 [7, 9] [µg/mL] | EC50 [8, 9] [µg/mL] | EC50 [1] [µg/mL] | EC50 [6] [µg/mL] | EC50 [7] [µg/mL] | EC50 [8] [µg/mL]
1 | CCOC(=O)C1c2ccccc2CN1P1(=S)Oc2ccccc2CN1c1ccc(N2Cc3ccccc3OP2(=S)N2Cc3ccccc3C2C(=O)OCC)cc1 (centres undefined) | 1.56 (≈ 1.9 µM) | 30.59 µg/mL | 5.77 | 285.58 | 75.7 | 1.55 (≈ 1.88 µM) | 1.49 (≈ 1.81 µM) | 1.68 (≈ 2.04 µM) |  |  |  | 
2 | COC(=O)C(Cc1c[nH]cn1)NP1(=S)Oc2ccccc2CN1c1ccc(N2Cc3ccccc3OP2(=S)NC(Cc2c[nH]cn2)C(=O)OC)cc1 (centres undefined) | 1.56 (≈ 2 µM) | 31.55 µg/mL | 3.66 | 282.28 | 77.2 | 1.4 (≈ 1.8 µM) | 1.45 (≈ 1.86 µM) | 1.75 (≈ 2.25 µM) |  |  |  | 
3 | VITAMIN E [listing 1 of 2 here] |  |  |  |  |  |  |  |  | 1.22 | 1.03 | 0.99 | 1.48
4 | O=C1O[C@H]([C@@H](O)CO)C(O)=C1O [ASCORBIC ACID] | 1.02 (≈ 5.79 µM) | inactive | 31.34 | 385.46 | 88.1 | 0.99 (≈ 5.62 µM) | 0.98 (≈ 5.56 µM) | 1.37 (≈ 7.78 µM) |  |  |  | 
5 | CCOC(=O)C(C)NP1(=S)Oc2ccccc2CN1c1ccc(N2Cc3ccccc3OP2(=S)NC(C)C(=O)OCC)cc1 (centres undefined) | 3.1 (≈ 4.59 µM) | 28.14 µg/mL | 4.56 | 270.32 | 68.9 | 2.98 (≈ 4.42 µM) | 2.68 (≈ 3.97 µM) | 3.38 (≈ 5.01 µM) |  |  |  | 
6 | CCCC(NP1(=S)Oc2ccccc2CN1c1ccc(N2Cc3ccccc3OP2(=S)NC(CCC)C(=O)OC)cc1)C(=O)OC (centres undefined) | 2.91 (≈ 4.14 µM) | 27.8 µg/mL | 5.02 | 265.43 | 68.2 | 2.31 (≈ 3.29 µM) | 2.66 (≈ 3.78 µM) | 3.98 (≈ 5.66 µM) |  |  |  | 
7 | VITAMIN E [listing 2 of 2 here] |  | 32.3 µg/mL | 43.6 | 403 | 82.8 |  |  |  |  |  |  | 
8 | COC(=O)C(Cc1ccccc1)NP1(=S)Oc2ccccc2CN1c1ccc(N2Cc3ccccc3OP2(=S)NC(Cc2ccccc2)C(=O)OC)cc1 (centres undefined) | 2.1 (≈ 2.63 µM) | 29.42 µg/mL | 4.21 | 279.43 | 72.9 | 1.98 (≈ 2.48 µM) | 2.05 (≈ 2.57 µM) | 2.2 (≈ 2.75 µM) |  |  |  | 
9 | COC(=O)C(Cc1c[nH]c2ccccc12)NP1(=S)Oc2ccccc2CN1c1ccc(N2Cc3ccccc3OP2(=S)NC(Cc2c[nH]c3ccccc23)C(=O)OC)cc1 (centres undefined) | 1.82 (≈ 2.08 µM) | 30.29 µg/mL | 5.84 | 280.48 | 76.2 | 1.39 (≈ 1.59 µM) | 1.45 (≈ 1.65 µM) | 1.98 (≈ 2.26 µM) |  |  |  | 
10 | Oc1ccccc1CNc1ccc(NCc2ccccc2O)cc1 | 5.02 (≈ 15.7 µM) | 26.27 µg/mL | 4.8 | 262.55 | 70.7 | 4.58 (≈ 14.3 µM) | 5.42 (≈ 16.9 µM) | 6.05 (≈ 18.9 µM) |  |  |  | 
11 | CCOC(=O)C(NP1(=S)Oc2ccccc2CN1c1ccc(N2Cc3ccccc3OP2(=S)NC(C(=O)OCC)c2ccccc2)cc1)c1ccccc1 (centres undefined) | 2.57 (≈ 3.22 µM) | 29.31 µg/mL | 4.12 | 270.32 | 70.5 | 2.42 (≈ 3.03 µM) | 2.15 (≈ 2.69 µM) | 2.98 (≈ 3.73 µM) |  |  |  | 
12 | COC(=O)C(C)NP1(=S)Oc2ccccc2CN1c1ccc(N2Cc3ccccc3OP2(=S)NC(C)C(=O)OC)cc1 (centres undefined) | 4.25 (≈ 6.57 µM) | 27.02 µg/mL | 3.56 | 271.27 | 72.2 | 3.56 (≈ 5.51 µM) | 3.5 (≈ 5.41 µM) | 5.28 (≈ 8.16 µM) |  |  |  | 
13 | COC(=O)C(NP1(=S)Oc2ccccc2CN1c1ccc(N2Cc3ccccc3OP2(=S)NC(C(=O)OC)C(C)C)cc1)C(C)C (centres undefined) | 4.1 (≈ 5.83 µM) | 27.86 µg/mL | 4.73 | 277.59 | 72.3 | 3.45 (≈ 4.91 µM) | 3.05 (≈ 4.34 µM) | 4.89 (≈ 6.96 µM) |  |  |  | 
14 | CCCC(NP1(=S)Oc2ccccc2CN1c1ccc(N2Cc3ccccc3OP2(=S)NC(CCC)C(=O)OCC)cc1)C(=O)OCC (centres undefined) | 2.59 (≈ 3.54 µM) | 28.55 µg/mL | 4.23 | 273.32 | 70.2 | 2.33 (≈ 3.19 µM) | 2.5 (≈ 3.42 µM) | 3.23 (≈ 4.42 µM) |  |  |  | 
